{"source": "patent US20050197350A1", "about": "“Novel quinoline, tetrahydroquinazoline, and pyrimidine derivatives and methods of treatment related to the use thereof” (TAISHO PHARMACEUTICAL CO., LTD., priority 2003, published 2005)", "data": [{"tested_on": "MCH receptors", "experiment": "MCH receptor activity class (method not given)", "conditions": "class by percent of control at 10^-7 M or IC50", "values": [{"molecule": "CN(C)c1nc(N[C@H]2CC[C@@H](CNC(=O)c3c(F)ccc(F)c3F)CC2)nc2c1CCCC2", "note": "[compound 662]", "class": "3 (Class 3 The value of percent of control at 10^−7 M was more than 60% or the value of IC50 was more than 200 nM.)"}, {"molecule": "CN(C)c1nc(N[C@H]2CC[C@@H](CNC(=O)c3cccc(F)c3F)CC2)nc2c1CCCC2", "note": "[compound 663]", "class": "3 (Class 3 The value of percent of control at 10^−7 M was more than 60% or the value of IC50 was more than 200 nM.)"}, {"molecule": "CN(C)c1nc(N[C@H]2CC[C@@H](CNC(=O)c3c(F)cccc3F)CC2)nc2c1CCCC2", "note": "[compound 664]", "class": "3 (Class 3 The value of percent of control at 10^−7 M was more than 60% or the value of IC50 was more than 200 nM.)"}, {"molecule": "CN(C)c1nc(N[C@H]2CC[C@@H](CNC(=O)c3c(F)cccc3C(F)(F)F)CC2)nc2c1CCCC2", "note": "[compound 665]", "class": "3 (Class 3 The value of percent of control at 10^−7 M was more than 60% or the value of IC50 was more than 200 nM.)"}, {"molecule": "Cc1cc(C)c(C(=O)NC[C@H]2CC[C@@H](Nc3nc4c(c(N(C)C)n3)CCCC4)CC2)c(C)c1", "note": "[compound 666]", "class": "2 (Class 2: The value of percent of control at 10^−7 M was from 40% to 60% or the value of IC′50 was from 50 nM to 200 nM.)"}, {"molecule": "CN(C)c1nc(N[C@H]2CC[C@@H](CNC(=O)c3c(F)cccc3Cl)CC2)nc2c1CCCC2", "note": "[compound 667]", "class": "2 (Class 2: The value of percent of control at 10^−7 M was from 40% to 60% or the value of IC′50 was from 50 nM to 200 nM.)"}, {"molecule": "CN(C)c1nc(N[C@H]2CC[C@@H](CNC(=O)c3c(Cl)cc(Cl)cc3Cl)CC2)nc2c1CCCC2", "note": "[compound 668, 2,4,6-trichloro-N-[(cis-4-{[4-(dimethylamino)-5,6,7,8-tetrahydroquinazolin-2-yl]amino}cyclohexyl)methyl]benzamide]", "class": "1 (Class 1: The value of percent of control at 10^−7 M was less than 40% or the value of IC50 was less than 50 nM.)"}, {"molecule": "CN(C)c1nc(N[C@H]2CC[C@@H](CNC(=O)/C=C/c3ccccc3Cl)CC2)nc2c1CCCC2", "note": "[compound 669]", "class": "3 (Class 3 The value of percent of control at 10^−7 M was more than 60% or the value of IC50 was more than 200 nM.)"}, {"molecule": "Cc1ccc(Cl)c(C(=O)NC[C@H]2CC[C@@H](Nc3nc4c(c(N(C)C)n3)CCCC4)CC2)c1F", "note": "[compound 670]", "class": "3 (Class 3 The value of percent of control at 10^−7 M was more than 60% or the value of IC50 was more than 200 nM.)"}, {"molecule": "CN(C)c1nc(N[C@H]2CC[C@@H](CNC(=O)c3c(F)ccc(F)c3Cl)CC2)nc2c1CCCC2", "note": "[compound 671]", "class": "3 (Class 3 The value of percent of control at 10^−7 M was more than 60% or the value of IC50 was more than 200 nM.)"}, {"molecule": "Cc1cccc(C(=O)NC[C@H]2CC[C@@H](Nc3nc4c(c(N(C)C)n3)CCCC4)CC2)c1C", "note": "[compound 672]", "class": "3 (Class 3 The value of percent of control at 10^−7 M was more than 60% or the value of IC50 was more than 200 nM.)"}, {"molecule": "CN(C)c1cc(N[C@H]2CC[C@@H](NC(=O)c3ccc(Br)s3)CC2)nc2ccccc12", "note": "[compound 673]", "class": "2 (Class 2: The value of percent of control at 10^−7 M was from 40% to 60% or the value of IC′50 was from 50 nM to 200 nM.)"}, {"molecule": "CN(C)c1cc(N[C@H]2CC[C@@H](NC(=O)Cc3c(Cl)ccc(Cl)c3Cl)CC2)nc2ccccc12", "note": "[compound 674, N-(cis-4-{[4-(dimethylamino)quinolin-2-yl]amino}cyclohexyl)-2-(2,3,6-trichlorophenyl)acetamide]", "class": "3 (Class 3 The value of percent of control at 10^−7 M was more than 60% or the value of IC50 was more than 200 nM.)"}, {"molecule": "CN(C)c1cc(N[C@H]2CC[C@@H](NC(=O)Cc3ccc(F)cc3Cl)CC2)nc2ccccc12", "note": "[compound 675]", "class": "3 (Class 3 The value of percent of control at 10^−7 M was more than 60% or the value of IC50 was more than 200 nM.)"}, {"molecule": "CN(C)c1cc(N[C@H]2CC[C@@H](NC(=O)c3ccc(-c4ccc(Cl)cc4[N+](=O)[O-])o3)CC2)nc2ccccc12", "note": "[compound 676, 5-(4-chloro-2-nitrophenyl)-N-(cis-4-{[4-(dimethylamino)quinolin-2-yl]amino}cyclohexyl)-2-furamide]", "class": "2 (Class 2: The value of percent of control at 10^−7 M was from 40% to 60% or the value of IC′50 was from 50 nM to 200 nM.)"}, {"molecule": "CN(C)c1cc(N[C@H]2CC[C@@H](NC(=O)c3ccc(Cl)s3)CC2)nc2ccccc12", "note": "[compound 677]", "class": "2 (Class 2: The value of percent of control at 10^−7 M was from 40% to 60% or the value of IC′50 was from 50 nM to 200 nM.)"}, {"molecule": "CN(C)c1cc(N[C@H]2CC[C@@H](NC(=O)CCc3ccccc3O)CC2)nc2ccccc12", "note": "[compound 679]", "class": "3 (Class 3 The value of percent of control at 10^−7 M was more than 60% or the value of IC50 was more than 200 nM.)"}, {"molecule": "CN(C)c1cc(N[C@H]2CC[C@@H](NC(=O)c3ccc(I)o3)CC2)nc2ccccc12", "note": "[compound 680, N-(cis-4-{[4-(dimethylamino)quinolin-2-yl]amino}cyclohexyl)-5-iodo-2-furamide]", "class": "1 (Class 1: The value of percent of control at 10^−7 M was less than 40% or the value of IC50 was less than 50 nM.)"}, {"molecule": "CN(C)c1cc(N[C@H]2CC[C@@H](NC(=O)Cc3ccccc3I)CC2)nc2ccccc12", "note": "[compound 681, N-(cis-4-{[4-(dimethylamino)quinolin-2-yl]amino}cyclohexyl)-2-(2-iodophenyl)acetamide]", "class": "2 (Class 2: The value of percent of control at 10^−7 M was from 40% to 60% or the value of IC′50 was from 50 nM to 200 nM.)"}, {"molecule": "COc1ccc2[nH]c(C)c(CC(=O)N[C@H]3CC[C@@H](Nc4cc(N(C)C)c5ccccc5n4)CC3)c2c1", "note": "[compound 682, N-(cis-4-{[4-(dimethylamino)quinolin-2-yl]amino}cyclohexyl)-2-(5-methoxy-2-methyl-1H-indol-3-yl)acetamide]", "class": "2 (Class 2: The value of percent of control at 10^−7 M was from 40% to 60% or the value of IC′50 was from 50 nM to 200 nM.)"}, {"molecule": "CN(C)c1cc(N[C@H]2CC[C@@H](NC(=O)/C=C/c3cccc([N+](=O)[O-])c3)CC2)nc2ccccc12", "note": "[compound 683]", "class": "2 (Class 2: The value of percent of control at 10^−7 M was from 40% to 60% or the value of IC′50 was from 50 nM to 200 nM.)"}, {"molecule": "CN(C)c1cc(N[C@H]2CC[C@@H](NC(=O)c3ccccc3Cc3ccccc3)CC2)nc2ccccc12", "note": "[compound 685]", "class": "3 (Class 3 The value of percent of control at 10^−7 M was more than 60% or the value of IC50 was more than 200 nM.)"}, {"molecule": "CN(C)c1cc(N[C@H]2CC[C@@H](NC(=O)C(c3ccc(Cl)cc3)c3ccc(Cl)cc3)CC2)nc2ccccc12", "note": "[compound 686]", "class": "2 (Class 2: The value of percent of control at 10^−7 M was from 40% to 60% or the value of IC′50 was from 50 nM to 200 nM.)"}, {"molecule": "Cc1ccc(-c2ccc(C(=O)N[C@H]3CC[C@@H](Nc4cc(N(C)C)c5ccccc5n4)CC3)o2)c([N+](=O)[O-])c1", "note": "[compound 687]", "class": "3 (Class 3 The value of percent of control at 10^−7 M was more than 60% or the value of IC50 was more than 200 nM.)"}, {"molecule": "CN(C)c1cc(N[C@H]2CC[C@@H](NC(=O)c3ccc([N+](=O)[O-])s3)CC2)nc2ccccc12", "note": "[compound 688, N-(cis-4-{[4-(dimethylamino)quinolin-2-yl]amino}cyclohexyl)-5-nitrothiophene-2-carboxamide]", "class": "1 (Class 1: The value of percent of control at 10^−7 M was less than 40% or the value of IC50 was less than 50 nM.)"}, {"molecule": "Cc1cc(C(=O)N[C@H]2CC[C@@H](Nc3cc(N(C)C)c4ccccc4n3)CC2)ccc1[N+](=O)[O-]", "note": "[compound 689, N-(cis-4-{[4-(dimethylamino)quinolin-2-yl]amino}cyclohexyl)-3-methyl-4-nitrobenzamide]", "class": "1 (Class 1: The value of percent of control at 10^−7 M was less than 40% or the value of IC50 was less than 50 nM.)"}, {"molecule": "COc1cc(C(=O)N[C@H]2CC[C@@H](Nc3cc(N(C)C)c4ccccc4n3)CC2)ccc1[N+](=O)[O-]", "note": "[compound 690, N-(cis-4-{[4-(dimethylamino)quinolin-2-yl]amino}cyclohexyl)-3-methoxy-4-nitrobenzamide]", "class": "1 (Class 1: The value of percent of control at 10^−7 M was less than 40% or the value of IC50 was less than 50 nM.)"}, {"molecule": "CN(C)c1cc(N[C@H]2CC[C@@H](NC(=O)c3cn(Cc4ccccc4)c4ccccc34)CC2)nc2ccccc12", "note": "[compound 691]", "class": "3 (Class 3 The value of percent of control at 10^−7 M was more than 60% or the value of IC50 was more than 200 nM.)"}, {"molecule": "CC(=O)c1cccc(C(=O)N[C@H]2CC[C@@H](Nc3cc(N(C)C)c4ccccc4n3)CC2)c1", "note": "[compound 692]", "class": "3 (Class 3 The value of percent of control at 10^−7 M was more than 60% or the value of IC50 was more than 200 nM.)"}, {"molecule": "CN(C)c1cc(N[C@H]2CC[C@@H](NC(=O)C3CCCC[C@H]3C(=O)c3ccccc3)CC2)nc2ccccc12", "note": "(stereo partly drawn) [compound 693]", "class": "3 (Class 3 The value of percent of control at 10^−7 M was more than 60% or the value of IC50 was more than 200 nM.)"}, {"molecule": "CN(C)c1cc(N[C@H]2CC[C@@H](NC(=O)c3ccc(Br)o3)CC2)nc2ccccc12", "note": "[compound 694, 5-bromo-N-(cis-4-{[4-(dimethylamino)quinolin-2-yl]amino}cyclohexyl)-2-furamide]", "class": "1 (Class 1: The value of percent of control at 10^−7 M was less than 40% or the value of IC50 was less than 50 nM.)"}, {"molecule": "CN(C)c1cc(N[C@H]2CC[C@@H](NC(=O)CCC3CCCCC3)CC2)nc2ccccc12", "note": "[compound 695]", "class": "3 (Class 3 The value of percent of control at 10^−7 M was more than 60% or the value of IC50 was more than 200 nM.)"}, {"molecule": "Cc1ccnc(SCC(=O)N[C@H]2CC[C@@H](Nc3cc(N(C)C)c4ccccc4n3)CC2)n1", "note": "[compound 696]", "class": "3 (Class 3 The value of percent of control at 10^−7 M was more than 60% or the value of IC50 was more than 200 nM.)"}, {"molecule": "CN(C)c1cc(N[C@H]2CC[C@@H](NC(=O)c3ccc(-c4ccc(Cl)cc4)o3)CC2)nc2ccccc12", "note": "[compound 697]", "class": "3 (Class 3 The value of percent of control at 10^−7 M was more than 60% or the value of IC50 was more than 200 nM.)"}, {"molecule": "CN(C)c1cc(N[C@H]2CC[C@@H](NC(=O)CCc3ccc(Cl)c(Cl)c3)CC2)nc2ccccc12", "note": "[compound 698]", "class": "3 (Class 3 The value of percent of control at 10^−7 M was more than 60% or the value of IC50 was more than 200 nM.)"}, {"molecule": "CN(C)c1cc(N[C@H]2CC[C@@H](NC(=O)Cc3ccc(Cl)c(Cl)c3)CC2)nc2ccccc12", "note": "[compound 699]", "class": "3 (Class 3 The value of percent of control at 10^−7 M was more than 60% or the value of IC50 was more than 200 nM.)"}]}]}
